Where no end group is shown, it is not given here.
Experiments:
[1] = tested on: filter-sterile supernatant of Rhodanobacter R179 (secreted peptidase(s)); test: Peptide quantification by mass spectrometry after incubation in cell-free supernatant of Rhodanobacter R179; format: in vitro ADME; conditions: for peptide detected by mass spectrometry after incubation in supernatant of the R179 dssAB mutant: filter-sterile supernatant of dssAB mutant cultivated in XVM2 (OD600 = 0.4); for peptide detected by mass spectrometry after incubation in supernatant of the R179 dssAB mutant / peptide detected by mass spectrometry after incubation in supernatant of wild-type R179: LC-MS MS1 peak area; for peptide detected by mass spectrometry after incubation in supernatant of wild-type R179: filter-sterile supernatant of wild-type R179 cultivated in XVM2 minimal medium (OD600 = 0.4), light chamber, n = 3 culture supernatants; for Log10(total_area_MS1) / percent_rel_axenic: incubation 1h; for Log10(total_area_MS1): MS1 precursor area; for percent_rel_axenic: peptide relative to axenic; for Total_area MS1 (intact flg22): 1 µM, LC-MS [M+2H]; for Total_area MS1 of identified AtPep1 cleavage product (acetylated […]): 1 µM AtPep1, LC-MS [M+2H]
Description: Elicitors were also supplemented into the medium prior to solidification at a final concentration of 1 µM. The flg22 ([…]) and AtPep1 ([…]) peptides were synthesized by EZbiolab. elf18^R179 (Ac-[…]) and elf18 (Ac-[…]) were synthesized by GenScript and EZbiolab, respectively. For inoculation with the bacterial supernatant, bacteria were cultivated overnight in XVM2 minimal medium (20 mM NaCl, 10 mM (NH4)2SO4, 5 mM MgSO4, 1 mM CaCl2, 0.16 mM KH2PO4, 0.32 mM K2HPO4, 0.01 mM FeSO4, 10 mM fructose, 10 mM sucrose, 0.03% Casamino acids, pH 6.7)[76] to a final concentration of OD600 = 0.4. Bacteria were pelleted by centrifugation (11,600 g, 2 min), and the supernatant was sterile-filtered using filter units with MF-Millipore membrane (0.22 µm; Millex). The supernatant was incubated in boiling water for 30 min for heat treatment. Then, 25 ml of 1× MS with 20 g l^−1 Bacto Agar was mixed with 25 ml of supernatant prior to medium solidification and poured into square petri dishes. Sterilized seeds were placed on solidified agar in square petri dishes and vertically incubated for 14 days.
Bacterial supernatants were prepared as described in ‘Agar-based cultivation of axenic plants and co-cultivation with bacteria, bacterial supernatants and elicitors’. Here, additionally, the peptides dRGF1 (DYSNPGHHP-Hyp-RHN) and PSY1 (D-Y(SO3H)-[…]-Hyp-Hyp-S) synthesized by Scilight Peptide were incubated for 1 h with 1 µM of peptides in a plant cultivation light chamber (day-light condition; see ‘Plant cultivation conditions’), and the samples were frozen at −20 °C until further processing. For the investigation of AtPep1 degradation, the AtPep1 peptide was first modified by acetylation (six to seven times). To this end, 100-µl aliquots of peptides were treated with 10 µl of NHS acetate solution (1 M NHS acetate in 50% ACN/PBS) and incubated for 30 min with shaking. The reaction was quenched by the addition of 100 µl of 100 mM Tris-HCl (pH 8.5) and incubated for 10 min. For comparison of the non-acetylated peptides with the above-described modified AtPep1 peptides, aliquots of the non-acetylated peptides were processed as described above, but without the modifying NHS reaction. To this end, 100-µl aliquots of the sample were mixed with 100 µl of PBS buffer (137 mM NaCl, 2.7 mM KCl, 10 mM Na2HPO4, 1.8 mM KH2PO4; pH 7.4). The samples were then further diluted with 100 µl of 100 mM Tris-HCl (pH 8.5) and incubated for 10 min. All samples were acidified with 5 µl of TFA and desalted using StageTips with C18 Empore disk membranes (3M)[109]. The samples were dried in a vacuum evaporator and dissolved in 10 µl of 2% ACN (0.1% TFA for analysis).
The samples were analysed using an EASY-nLC 1200 (Thermo Fisher) coupled to a QExactive Plus mass spectrometer (Thermo Fisher). Peptides were separated on 16-cm frit-less silica emitters (New Objective, 75 µm inner diameter), packed in-house with reversed-phase ReproSil-Pur C18 AQ 1.9 µm resin (Dr. Maisch). Peptides were loaded on the column and eluted for 50 min using a segmented linear gradient of 5% to 95% solvent B (0 min, 5% B; 0–5 min, 15% B; 5–35 min, 50% B; 35–45 min, 95% B; 45–50 min, 95% B) (solvent A: 0% ACN, 0.1% FA; solvent B: 80% ACN, 0.1% FA) at a flow rate of 300 nl min^−1. Mass spectra were acquired in data-dependent acquisition mode with a TOP10 method. Mass spectrometry spectra were acquired in the Orbitrap analyser with a mass range of 300–1,500 m/z at a resolution of 70,000 full width at half maximum (FWHM) and a target value of 3 × 10^6 ions. Precursors were selected with an isolation window of 1.3 m/z. Higher-energy collision dissociation (HCD) fragmentation was performed at a normalized collision energy of 25. Tandem mass spectrometry (MS/MS) spectra were acquired with a target value of 5 × 10^5 ions at a resolution of 17,500 FWHM, a maximum injection time of 85 ms and a fixed first mass of 100 m/z. […]

[2] = tested on: Arabidopsis wild type and efr mutant plants; test: elf18-induced shoot growth inhibition, shoot weight; format: in vivo, Arabidopsis thaliana; conditions: Arabidopsis Col-0, 1 µM, 2 weeks
[3] = R179 dssAB mutant supernatant, XVM2 medium, replicate 1
[4] = R179 dssAB mutant supernatant, XVM2 medium, replicate 2
[5] = R179 dssAB mutant supernatant, XVM2 medium, replicate 3
[6] = R179 wt supernatant, XVM2 medium, replicate 2
[7] = R179 wt supernatant, XVM2 medium, replicate 3
[8] = R179 wt supernatant, XVM2 medium, replicate 1
[9] = axenic XVM2 medium control, replicate 2
[10] = axenic XVM2 medium control, replicate 3
[11] = supernatant of wt R179 in XVM2 (OD600 = 0.4), 1h, replicate 1
[12] = supernatant of wt R179 in XVM2 (OD600 = 0.4), 1h, replicate 2
[13] = supernatant of wt R179 in XVM2 (OD600 = 0.4), 1h, replicate 3
[14] = axenic XVM2 medium control, replicate 1

Row | Substance | peptide detected by mass spectrometry after incubation in supernatant of the R179 dssAB mutant ([1]; 1 µM peptide, 1 h, n = 3) | peptide detected by mass spectrometry after incubation in supernatant of wild-type R179 ([1]; 1 µM peptide, 1 h) | Log10(total_area_MS1) [1, 3] | Log10(total_area_MS1) [1, 4] | Log10(total_area_MS1) [1, 5] | percent_rel_axenic [1, 3] [%] | percent_rel_axenic [1, 4] [%] | percent_rel_axenic [1, 5] [%] | Log10(total_area_MS1) [1, 6] | Log10(total_area_MS1) [1, 7] | percent_rel_axenic [1, 8] [%] | percent_rel_axenic [1, 6] [%] | percent_rel_axenic [1, 7] [%] | Log10(total_area_MS1) [1, 9] | Log10(total_area_MS1) [1, 10] | percent_rel_axenic [1, 9] [%] | percent_rel_axenic [1, 10] [%] | Log10(total_area_MS1) [1, 14] | percent_rel_axenic [1, 14] [%] | other results
1 | QRLSTGSRINSAKDDAAGLQIA [flg22] | efficient and rapid (1 h) proteolytic degradation | efficient and rapid (1 h) proteolytic degradation | 0 | 0 | 0 | 0 | 0 | 0 | 0 | 0 | 0 | 0 | 0 | 8.543 | 8.745 | 75.7327 | 120.41 | – | – | peptide detected by mass spectrometry after incubation in heat-treated supernatant of wild-type R179 ([1]; 1 µM peptide, 1 h, supernatant boiled 30 min, XVM2, LC-MS MS1 peak area, n = 3): detected; Total_area MS1 (intact flg22) ([1]; axenic XVM2 medium, 1h, replicate 2): 3.04E+08; Total_area MS1 (intact flg22) ([1]; axenic XVM2 medium, 1h, replicate 3): 4.20E+08; Total_area MS1 (intact flg22) ([1]; heat-treated (HK-wt) supernatant of wt R179 in XVM2, 1h, replicate 1): 1.96E+09; Total_area MS1 (intact flg22) ([1]; heat-treated (HK-wt) supernatant of wt R179 in XVM2, 1h, replicate 2): 3.13E+09; Total_area MS1 (intact flg22) ([1]; heat-treated (HK-wt) supernatant of wt R179 in XVM2, 1h, replicate 3): 9.82E+08; Total_area MS1 (intact flg22) [1, 11]: 0.00E+00; Total_area MS1 (intact flg22) [1, 12]: 0.00E+00; Total_area MS1 (intact flg22) [1, 13]: 0.00E+00
2 | Ac-SKEKFERTKPHVNVGTIG [elf18] | depleted | depleted | 0 | 0 | 0 | 0 | 0 | 0 | 0 | 0 | 0 | 0 | 0 | 10.552 | 10.527 | 106.053 | 100.108 | 10.4989 | 93.8398 | shoot growth (shoot weight) upon peptide treatment [2]: Shoot growth inhibition
3 | ATKVKAKQRGKEKVSSGRPGQHN [AtPep1] | depleted | depleted | 6.423 | 6.556 | 5.255 | 0.0095 | 0.0129 | 0.0006 | 5.86 | 6.66 | 0.086 | 0.0026 | 0.0164 | 10.4615 | 10.4458 | 103.993 | 100.296 | 10.4254 | 95.7106 | traces of AtPep1 detected after incubation in R179 supernatants ([1]; 1 µM peptide, 1 h, R179 supernatant in XVM2, AtPep1 acetylated before LC-MS): < 0.01%; Log10(total_area_MS1) [1, 8]: 7.379; Total_area MS1 of identified AtPep1 cleavage product (acetylated […]) ([1]; supernatant of R179 dssAB mutant in XVM2 (OD600 = 0.4), 1h, replicate 1): 2.38E+09; Total_area MS1 of identified AtPep1 cleavage product (acetylated […]) ([1]; supernatant of R179 dssAB mutant in XVM2 (OD600 = 0.4), 1h, replicate 2): 1.79E+09; Total_area MS1 of identified AtPep1 cleavage product (acetylated […]) ([1]; supernatant of R179 dssAB mutant in XVM2 (OD600 = 0.4), 1h, replicate 3): 2.15E+09; Total_area MS1 of identified AtPep1 cleavage product (acetylated […]) [1, 11]: 1.79E+09; Total_area MS1 of identified AtPep1 cleavage product (acetylated […]) [1, 12]: 1.66E+09; Total_area MS1 of identified AtPep1 cleavage product (acetylated […]) [1, 13]: 1.89E+09
